# Results published in patent US5041441A, “Method of chemotherapy using 1-phenyl-2-decanoylamino-3-morpholino-1-propanol” (The Regents of the University of Michigan, priority 1988, dated 1991).
# Marks after values point to notes of the source that are not given here.
# Key:
# [1] = system: Ehrlich ascites tumor cells (EATC); test: Antitumor activity in mice inoculated i.p. with Ehrlich ascites tumor cells; assay type: in vivo; settings: for 50-day cure (mice) / Solid Tumors at 50 days (mice): 8 mice; for Acute, initial toxicity observation: C18 (stearoyl) homolog, 0.15 mmol/kg on day 1; for Normal at 60 days / Solid tumors at 60 days: L-threo isomer; for Weight Change after 10 days: mouse, in vivo
# Protocol: Male mice of the ICR (Swiss Hsd) strain from Harlan--Sprague Dawley (Indianapolis, Ind.) were injected intraperitoneal with saline containing 2×10^6 Ehrlich ascites tumor cells (EATC) on day 0. […] Treatment began 24 hours later with intraperitoneal injections of saline or inhibitor, either as the acetate salt or as the hydrochloride salt. The inhibitor was dissolved in 40° C. saline and injected at 10 μl/g body weight. In the case of drugs that were difficult to dissolve, e.g. the hydrochlorides, a non-ionic, low toxicity detergent was included to emulsify the drug, making it suitable for injection. Two cages of mice were assigned to each control or experimental group and fed standard lab chow. In almost all cases, the mice were injected daily for a total of 10 doses.
# The 1-tailed Student t-test for unpaired samples was used for statistical analysis.
# The experimental procedure set forth above was again followed with homologs of PDMP made from fatty acids of 10 to 18 carbon atom length. The compounds were not resolved into D- and L-forms but the threo stereomers were used as the hydrochlorides. All samples were emulsified in Myrj 52 (15 mg/kg).
# [2] = biological target: T1, glucosyltransferase (EATC enzyme) (Mus musculus, UniProt O88693); test: Glucosyltransferase assay, microsomes from EATC; assay type: biochemical
# T1 construct: Microsomes from EATC (0.50 mg protein) required 20 μM PDMP to reduce the glucosyltransferase activity in half; endogenous in cells; host or cells: Ehrlich ascites tumor cells (EATC), microsomes
# T1 sequence (O88693 1-394): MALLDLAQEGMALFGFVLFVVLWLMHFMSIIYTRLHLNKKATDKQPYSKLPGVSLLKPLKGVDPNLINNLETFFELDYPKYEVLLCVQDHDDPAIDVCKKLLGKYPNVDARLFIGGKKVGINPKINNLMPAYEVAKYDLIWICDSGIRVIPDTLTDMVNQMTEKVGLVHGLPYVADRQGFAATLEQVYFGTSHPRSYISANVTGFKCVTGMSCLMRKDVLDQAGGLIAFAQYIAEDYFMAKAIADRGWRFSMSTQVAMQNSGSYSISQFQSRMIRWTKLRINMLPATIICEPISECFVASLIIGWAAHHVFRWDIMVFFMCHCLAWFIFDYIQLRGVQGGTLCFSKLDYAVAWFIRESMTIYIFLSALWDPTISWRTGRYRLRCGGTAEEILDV
# Protocol: Evidence that D-threo-PDMP acts to inhibit GlcCer biosynthesis was provided as follows from assay of glucosyltransferase. Microsomes as source of enzyme were prepared by highspeed centrifugation and stored at -70° C. before use. The incubations were at 37° C. for 30 minutes with microsomes, ATP, liposomal octanoyl sphingosine, UDP-[^3 H]glu, Mg^2+, and dithioerythritol. Microsomes from EATC (0.50 mg protein) required 20 μM PDMP to reduce the glucosyltransferase activity in half. The microsomes from normal liver (72 μg protein) required 5 μM D-threo-PDMP. While the EATC enzyme seems to be less sensitive to the inhibitor, the intraperitoneal concentration of inhibitor is initially very high.
# Ehrlich ascites cells [3] = test: Growth of Ehrlich ascites cells in vivo (volume of packed cells); settings: for Volume of packed cells / Volume of packed cells, % of controls: treatment begun 3 days after EATC inoculation, 5 injections, killed 1 day later, 100 mg/kg
# Protocol: A suspension of GlcCer was injected into one group of 10 mice inoculated 1 day earlier with EATC as before. Injectable suspensions of GlcCer and galactosylceramide (GalCer) were prepared by mechanical grinding in saline (10 mg/ml) and injected at a dosage of 100 mg/kg. In one experiment, the mice were killed 1 day after the last of eight daily injections and the ascites cells were flushed out of the abdomen with buffered saline and washed.
# Treatments were begun 3 days after EATC inoculation. Only 5 injections were given and the mice were killed 1 day later.
# Ehrlich ascites cells [4] = settings: mice bearing Ehrlich ascites carcinoma cells, injection of glucosylceramide (background); cited from earlier work
# [5] = DL-threo hydrochloride in Myrj 52 emulsion, 0.3 mmol/kg, ten daily injections
# [6] = DL-threo hydrochloride in Myrj 52 emulsion, C16 0.15 mmol/kg, six injections
# [7] = DL-threo hydrochloride in Myrj 52 emulsion, C18 0.15 mmol/kg on day 1 and 0.075 mmol/kg the remaining 9 days
compound,measurement,setting,value
"CCCCCCCCCC(=O)N[C@H](CN1CCOCC1)[C@H](O)c1ccccc1 (relative stereo) [compound 10, 1-Phenyl-2-Decanoylamino-3-Morpholino-1-Propanol]",50-day cure (mice),[1]; [5],5
same,Solid Tumors at 50 days (mice),[1]; [5],1
same,Mice that developed small solid tumors that were later resorbed,"[1]; decanoyl group, 0.3 mmol/kg in Myrj emulsion",two
same,Long-term cure rate,"[1]; dosage of 128 mg/kg, Myrj emulsion",50%
CCCCCCCCCCCC(=O)N[C@H](CN1CCOCC1)[C@H](O)c1ccccc1 (relative stereo) [compound 12],Body Weight Increase at the 10-day point,[1]; [5],-0.1 g
same,50-day cure (mice),[1]; [5],2
same,Solid Tumors at 50 days (mice),[1]; [5],2
CCCCCCCCCCCCCC(=O)N[C@H](CN1CCOCC1)[C@H](O)c1ccccc1 (relative stereo) [compound 14],Body Weight Increase at the 10-day point,[1]; [5],0.1 g
same,50-day cure (mice),[1]; [5],1
same,Solid Tumors at 50 days (mice),[1]; [5],4
CCCCCCCCCCCCCCCC(=O)N[C@H](CN1CCOCC1)[C@H](O)c1ccccc1 (relative stereo) [compound 16],Body Weight Increase at the 10-day point,[1]; [6],-1.1 g
same,Survival after 10 days,[1]; [6],5/8
same,50-day cure (mice),[1]; [6],3
same,Solid Tumors at 50 days (mice),[1]; [6],1
same,Toxicity observation,"[1]; palmitoyl homolog, daily injections in Myrj 52",too toxic to be used more than six times
CCCCCCCCCCCCCCCCCC(=O)N[C@H](CN1CCOCC1)[C@H](O)c1ccccc1 (relative stereo) [compound 18],"Acute, initial toxicity observation",[1],high initial weight loss
same,"Acute, initial toxicity observation",[1]; listed as C18 homolog,"absence of an acute, initial toxicity reaction"
same,Body Weight Increase at the 10-day point,[1]; [7],2.5 g
same,50-day cure (mice),[1]; [7],6
same,Solid Tumors at 50 days (mice),[1]; [7],0
"CCCCCCCCCC(=O)N[C@@H](CN1CCOCC1)[C@@H](O)c1ccccc1 [L-threo-PDMP, 1-Phenyl-2-Decanoylamino-3-Morpholino-1-Propanol]",Effectiveness in curing the tumors compared with the D-enantiomer,"[1]; 60-day observation period, 75-150 mg/kg",more effective in curing the tumors than the D-enantiomer
same,Losses of animals during the initial 10 days of treatment,[1]; 75-150 mg/kg,no losses of animals
same,Ascites fluid in treated mice,"[1]; 75-150 mg/kg, 10 days",At no time was ascites fluid visible
same,Normal at 60 days,"[1]; 75 mg/kg, 10 days",4 # of mice
same,Solid tumors at 60 days,"[1]; 75 mg/kg, 10 days",2 # of mice
same,Normal at 60 days,"[1]; 100 mg/kg, 10 days",4 # of mice
same,Solid tumors at 60 days,"[1]; 100 mg/kg, 10 days",3 # of mice
same,Normal at 60 days,"[1]; 125 mg/kg, 10 days",2 # of mice
same,Solid tumors at 60 days,"[1]; 125 mg/kg, 10 days",3 # of mice
same,Normal at 60 days,"[1]; 150 mg/kg, 10 days",5 # of mice
same,Solid tumors at 60 days,"[1]; 150 mg/kg, 10 days",3 # of mice
same,Mice in which disappearance of solid tumors was observed,[1]; at the higher dosages,two
same,Acute toxicity reactions of the mice,[1]; compared with the D-isomer,distinctly smaller than with the D-isomer
same,Weight Change after 10 days,[1]; 75 mg/kg,3.2 g
same,Weight Change after 10 days,[1]; 100 mg/kg,1.9 g
same,Weight Change after 10 days,[1]; 125 mg/kg,0.8 g
same,Weight Change after 10 days,[1]; 150 mg/kg,-0.2 g
same,Inhibition of ceramide glucosyltransferase,[2]; general statement,ineffective
same,Inhibition of the EATC enzyme,[2]; microsomes from EATC,did not inhibit
galactosylceramide [GalCer],Stimulation of EATC growth,"Ehrlich ascites cells [3]; Experiment 7, 100 mg/kg",no stimulation of EATC growth
same,Volume of packed cells,Ehrlich ascites cells [3],2.29 ± 1.21 ml/mouse
same,"Volume of packed cells, % of controls",Ehrlich ascites cells [3],84 % of controls
glucosylceramide [GlcCer],Increase in the number of cancer cells,Ehrlich ascites cells [4],greater than 50%
same,"Packed, centrifuged ascites cells (mean value per mouse)","Ehrlich ascites cells [3]; EATC mice, eight daily injections from day 1, killed 1 day after the last, GlcCer 100 mg/kg, saline controls 3.07 ml",4.68 mL
same,Increase of packed cells over saline-injected controls,"Ehrlich ascites cells [3]; EATC mice, eight daily injections, GlcCer 100 mg/kg, p less than 0.05",52%
same,Volume of packed cells,Ehrlich ascites cells [3],4.13 ± 0.63 ml/mouse
same,"Volume of packed cells, % of controls",Ehrlich ascites cells [3],152 % of controls
